For data set [1] the following is noted: Crystal; visual observation.
Data set [2] in a line: xn = mol fraction of the nth substance listed. The note with it: 101 kPa, Liquid, Pulse-echo method, x2 = 0.5.

The structures appear in SMILES notation. ± gives the expanded uncertainty stated by the source.

Take `[Cl-].[Na+]` [sodium chloride]: in data set [1], the Normal melting temperature came out at 801 ± 1 °C. Regarding `[Ag][I]` [silver iodide] + [Cl-].[Na+], the results for the speed of sound in data set [2] (1065 K), in data set [2] (1071 K) and in data set [2] (1075 K) were 1360 ± 8 m/s, 1357 ± 8 m/s and 1354 ± 8 m/s, respectively. On to `[Ag][I]` [silver iodide], for which, in data set [1], the Normal melting temperature worked out at 559 ± 1 °C.

These data come from the NIST ThermoML archive (doi:10.1016/j.jct.2012.12.015).
